Laboratory results: PMC7782785, “Outer-membrane-acting peptides and lipid II-targeting antibiotics cooperatively kill Gram-negative pathogens” (Communications Biology, 2021)
Converted amounts (≈) assume the structure as drawn.

Experiments:
[1] = tested on: P. aeruginosa PA14; assay: microbe, parasite or virus in culture; type: cell-based; conditions: Pseudomonas aeruginosa, PA14, read-out: MIC alone (MICA vancomycin, MICB D-11)
Procedure: (§1) MIC tests were performed in triplicate by liquid growth inhibition microdilution assays in sterile polypropylene microtiter plates according to the Clinical and Laboratory Standards Institute (CLSI) guideline for bacteria that grow aerobically. Briefly, the indicator strains were first streaked on the appropriate agar plate, and then single colonies were picked and incubated overnight in liquid broth. The final inoculum of bacteria was 5*10^5 CFU/mL prepared in CAMHB (cationic adjusted Mueller–Hinton broth, Sigma-Aldrich) or CAMHB plus 5% of lysed horse blood (TCS Biosciences, Buckingham, UK) in the case of S. pneumoniae. The antimicrobials were 2-fold serially diluted and 50 µL diluted bacterial suspension was added to each well to make the final volume 100 µL. The microtiter plates and the count plates were incubated at 37 °C for 16–20 h without shaking. Growth inhibition was assessed by measuring the OD600 using a microplate reader (Tecan Infinity F200). The lowest concentration of the antimicrobials that inhibits visible growth of the indicator strain is identified as the MIC value.

[2] = tested on: A. baumannii ATCC 17978; assay: microbe, parasite or virus in culture; type: cell-based; conditions: Acinetobacter baumannii, ATCC17978, read-out: MIC alone (MICA vancomycin, MICB D-11)
Procedure: as §1

[3] = tested on: K. pneumoniae ATCC700603; assay: microbe, parasite or virus in culture; type: cell-based; conditions: Klebsiella pneumoniae, ATCC700603, read-out: MIC alone (MICA vancomycin, MICB D-11)
Procedure: as §1

[4] = tested on: E. coli ATCC BAA-2452; assay: microbe, parasite or virus in culture; type: cell-based; conditions: Escherichia coli, ATCCBAA2452, read-out: MIC alone (MICA vancomycin, MICB D-11)
Procedure: as §1

[5] = tested on: P. aeruginosa ATCC 27853; assay: microbe, parasite or virus in culture; type: cell-based; conditions: Pseudomonas aeruginosa, ATCC27853, read-out: MIC alone (MICA vancomycin, MICB D-11)
Procedure: as §1

[6] = tested on: E. coli ATCC 25922; assay: microbe, parasite or virus in culture; type: cell-based; conditions: Escherichia coli, ATCC25922, read-out: MIC alone (MICA vancomycin, MICB D-11)
Procedure: as §1

[7] = tested on: P. aeruginosa LMG 6395; assay: microbe, parasite or virus in culture; conditions: Pseudomonas aeruginosa, LMG6395
Procedure: as §1
(§2) The condition for the tests and the analysis of the plates were performed as described above for the MIC tests.

[8] = tested on: K. pneumoniae LMG 20218; assay: microbe, parasite or virus in culture; conditions: Klebsiella pneumoniae, LMG20218
Procedure: as §1, §2

[9] = tested on: E. aerogenes LMG 02094; assay: microbe, parasite or virus in culture; conditions: Klebsiella aerogenes, LMG02094
Procedure: as §1, §2

[10] = tested on: A. baumannii LMG 01041; assay: microbe, parasite or virus in culture; conditions: Acinetobacter baumannii, LMG01041
Procedure: as §1, §2

[11] = tested on: E. coli LMG 15862; assay: microbe, parasite or virus in culture; conditions: Escherichia coli, LMG15862
Procedure: as §1, §2

[12] = tested on: K. pneumoniae LMG 20218; conditions: K. pneumoniae
Procedure: (§3) For the synergy test, standard checkerboard broth microdilution assays were conducted to test the synergistic effect of combined antimicrobials using the same condition as before[51],[56]. […] The initial concentration of both peptides was their individual MIC. 50 µL fresh bacterial suspension prepared as above was added to the wells already containing the antimicrobial compound mixture to achieve 100 µL final volume per well.
(§4) The fractional inhibitory concentration (FIC) indices[57] were calculated using the formula FICI = FICa + FICb = MICac/MICa + MICbc/MICb, to determine whether the combination is additive, synergistic or antagonistic[51],[57]. The MICa and MICb is the MIC of compound A or B alone, respectively. MICac is the MIC of compound A in combination with compound B and MICbc is the MIC of compound B when it was combined with compound A. The FIC corresponds to the MIC of a compound in combination with the other compound, divided by the MIC of the compound alone. FICa is FIC of compound A while FICb is FIC of compound B. The FICI was interpreted according to EUCAST[58] as follows: synergistic, FICI ≤ 0.5; additive,0.5 < FICI ≤ 1; indifferent, 1 < FICI < 2; antagonistic, FICI ≥ 2.
as §2

[13] = tested on: P. aeruginosa PA14; type: cell-based; conditions: checkerboard
Procedure: as §3, §4

[14] = tested on: E. coli B1927; type: cell-based; conditions: checkerboard
Procedure: as §3, §4

[15] = tested on: P. aeruginosa ATCC BAA-2108; type: cell-based; conditions: checkerboard
Procedure: as §3, §4

[16] = tested on: P. aeruginosa B1954; type: cell-based; conditions: checkerboard
Procedure: as §3, §4

[17] = tested on: E. coli ATCC BAA-2452; type: cell-based; conditions: checkerboard
Procedure: as §3, §4

[18] = tested on: P. aeruginosa ATCC 27853; type: cell-based; conditions: checkerboard
Procedure: as §3, §4

[19] = tested on: A. baumannii ATCC BAA-1605; type: cell-based; conditions: checkerboard
Procedure: as §3, §4

[20] = tested on: K. pneumoniae ATCC BAA-2524; type: cell-based; conditions: checkerboard
Procedure: as §3, §4

[21] = tested on: A. baumannii B2026; type: cell-based; conditions: checkerboard
Procedure: as §3, §4

[22] = tested on: all the Gram-negative strains tested; assay: organism not typed
Procedure: as §1, §2
Hemolytic activity was determined with fresh human red blood cells (hRBCs)[28]. The hRBCs were centrifuged (1000×g, 5 min) and the supernatant was discarded. The pellets were washed three times with PBS and diluted in PBS to make the cell stock solution with a cell density of 2*10^8 cells/mL. […] 1% Triton X-100 and PBS were used as controls. […] The supernatant was transferred to a new 96-well plate and hemolysis was monitored by measuring the absorbance at 450 nm (OD450). Hemolysis levels were calculated as percentage. % hemolysis = 100 × (As−A0)/(At−A0), where As, A0, and At are the absorbance of the hRBCs suspension in PBS with antimicrobial agents (As), without antimicrobial agents (A0), and with 1% Triton X-100 (At). […] For the TI calculation (TI = MHC/GM), other factors as the GM (geometric mean of MIC value of all the Gram-negative strains tested) were calculated.

CN[C@H](CC(C)C)C(=O)N[C@H]1C(=O)N[C@@H](CC(N)=O)C(=O)N[C@H]2C(=O)N[C@H]3C(=O)N[C@H](C(=O)N[C@H](C(=O)O)c4cc(O)cc(O)c4-c4cc3ccc4O)[C@H](O)c3ccc(c(Cl)c3)Oc3cc2cc(c3O[C@@H]2O[C@H](CO)[C@@H](O)[C@H](O)[C@H]2O[C@H]2C[C@](C)(N)[C@H](O)[C@H](C)O2)Oc2ccc(cc2Cl)[C@H]1O [Vancomycin]
MIC [1]: 88.3 µM (≈ 128 µg/mL) | MIC [2]: 88.3 µM (≈ 128 µg/mL) | MIC [3]: > 88.3 µM | MIC [4]: > 88.3 µM | MIC [5]: > 88.3 µM | MIC [6]: > 88.3 µM | MIC [7]: 128 µM (≈ 186 µg/mL) | MIC [8]: 128 µM (≈ 186 µg/mL) | MIC [9]: 192 µM (≈ 278 µg/mL) | MIC [10]: 32 µM (≈ 46.4 µg/mL) | MIC [11]: 64 µM (≈ 92.8 µg/mL) | vancomycin concentration needed in combination with D-11 ([12]; checkerboard after the addition of excess LPS (1.0 mg/mL)): at least 32 µM | vancomycin concentration inhibiting growth in combination with 1 µM D-11 ([12]; checkerboard without the addition of LPS): 2 µM | MICAB: MIC of vancomycin in combination with D-11 at the MICAC concentration [13]: 32 µM | MICAB: MIC of vancomycin in combination with D-11 at the MICAC concentration [14]: 5.52 µM | MICAB: MIC of vancomycin in combination with D-11 at the MICAC concentration [15]: 44.15 µM | MICAB: MIC of vancomycin in combination with D-11 at the MICAC concentration [16]: 44.15 µM | MICAB: MIC of vancomycin in combination with D-11 at the MICAC concentration [17]: 2.76 µM | MICAB: MIC of vancomycin in combination with D-11 at the MICAC concentration [18]: 11.04 µM | MICAB: MIC of vancomycin in combination with D-11 at the MICAC concentration [19]: 2.76 µM | MICAB: MIC of vancomycin in combination with D-11 at the MICAC concentration [20]: 11.04 µM | MICAB: MIC of vancomycin in combination with D-11 at the MICAC concentration [21]: 2.76 µM | increase of MIC against Gram-negative pathogens when LPS was in the medium ([22]; LPS 1 mg/mL, vancomycin: except against A. baumannii): 2 fold | MIC ([22]; read-out: GM, MIC geometric mean against all the Gram-negative strains tested): 87.7 µM (≈ 127 µg/mL)
